pEC50: −log10 of the molar value.

The test system of this assay is HCV 1b-377-neo replicon cells. Kind of assay: HCV Replicon assay, HCV 1b-377-neo replicon cells. Format: cell-based, HCV 1b genotype. As to conditions: Hepatitis C virus, Table 2, read-out: Range (EC50 against HCV 1b). As for the experimental part: An HCV Replicon assay was utilized in the present disclosure, and was prepared, conducted and validated as described in commonly owned PCT/US2006/022197 and in O'Boyle et. al. Antimicrob Agents Chemother. 2005 April; 49(4):1346-53.
HCV 1b-377-neo replicon cells were used to test the currently described compound series as well as cells resistant to compound A due to a Y2065H mutation in NS5A (described in application PCT/US2006/022197). The compounds tested were determined to have more than 10-fold less inhibitory activity on cells resistant to compound A than wild-type cells indicating a related mechanism of action between the two compound series. Thus, the compounds of the present disclosure can be effective to inhibit the function of the HCV NS5A protein and are understood to be as effective in combinations as previously described in application PCT/US2006/022197 and commonly owned WO/O4014852. Further, the compounds of the present disclosure can be effective against the HCV 1b genotype. It should also be understood that the compounds of the present disclosure can inhibit multiple genotypes of HCV. […] In one embodiment compounds of the present disclosure are active against the 1a, 1b, 2a, 2b, 3a, 4a, and 5a genotypes.
In general terms: A replicon is a self-replicating genome or part of one, used to study replication in cells.
Regarding `C[C@@H](c1ncc(-c2ccc(-c3ccc(-c4cnc([C@@H]5CCCN5C(=O)[C@@H](c5ccccc5)N(C)C)[nH]4)cc3)cc2)[nH]1)N(C)C(=O)[C@@H](c1ccccc1)N(C)C` [Example 24-18-5, (2R)-2-(dimethylamino)-N-((1S)-1-(5-(4′-(2-((2S)-1-((2R)-2-(dimethylamino)-2-phenylacetyl)-2-pyrrolidinyl)-1H-imidazol-5-yl)-4-biphenylyl)-1H-imidazol-2-yl)ethyl)-N-methyl-2-phenylacetamide], the negative-log EC50 (pEC50) is 9.00 to 12.00.

On to `COC(=O)N[C@@H](C(=O)N1CCC[C@H]1c1ncc(-c2ccc(-c3ccc(-c4cnc([C@@H]5CCCN5C(=O)Cc5ccccc5)[nH]4)cc3)cc2)[nH]1)c1ccccc1` [Example 28, methyl((1R)-2-oxo-1-phenyl-2-((2S)-2-(5-(4′-(2-((2S)-1-(phenylacetyl)-2-pyrrolidinyl)-1H-imidazol-5-yl)-4-biphenylyl)-1H-imidazol-2-yl)-1-pyrrolidinyl)ethyl)carbamate], for which the negative logarithm of the EC50 (pEC50) was 7.00 to 9.00.

On to `Cc1cc(-c2cnc([C@@H]3CCCN3C(=O)[C@@H](c3ccccc3)N(C)C)[nH]2)ccc1-c1ccc(-c2cnc([C@@H]3CCCN3C(=O)[C@@H](c3ccccc3)N(C)C)[nH]2)cc1C` [Example 121, (1R,1′R)-2,2′-((2,2′-dimethyl-4,4′-biphenyldiyl)bis(1H-imidazole-5,2-diyl(2S)-2,1-pyrrolidinediyl))bis(N,N-dimethyl-2-oxo-1-phenylethanamine)], for which the negative logarithm of the EC50 (pEC50) is 9.00 to 12.00. Next, `COC(=O)N[C@@H](C(=O)N1CCC[C@H]1c1ncc(-c2ccc(-c3ccc(-c4cnc([C@@H]5CCCN5C(=O)[C@@H](c5ccccc5)N(C)C)[nH]4)cc3C)cc2)[nH]1)c1ccccc1` [Example 126, methyl ((1R)-2-((2S)-2-(5-(4′-(2-((2S)-1-((2R)-2-(dimethylamino)-2-phenylacetyl)-2-pyrrolidinyl)-1H-imidazol-5-yl)-2′-methyl-4-biphenylyl)-1H-imidazol-2-yl)-1-pyrrolidinyl)-2-oxo-1-phenylethyl)carbamate]: 9.00 to 12.00.

For the compound `COC(=O)N[C@@H](C(=O)N1CCC[C@H]1c1ncc(-c2ccc(-c3ccc(-c4cnc([C@@H]5CCCN5C(=O)Cc5cccnc5)[nH]4)cc3C)cc2)[nH]1)c1ccccc1` [Example 127, methyl ((1R)-2-((2S)-2-(5-(2′-methyl-4′-(2-((2S)-1-(3-pyridinylacetyl)-2-pyrrolidinyl)-1H-imidazol-5-yl)-4-biphenylyl)-1H-imidazol-2-yl)-1-pyrrolidinyl)-2-oxo-1-phenylethyl)carbamate], the pEC50 was 9.00 to 12.00. Next, `COC(=O)N[C@@H](C(=O)N1CCC[C@H]1c1ncc(-c2ccc(-c3ccc(-c4cnc([C@@H]5CCCN5C(=O)[C@@H]5CCCO5)[nH]4)cc3C)cc2)[nH]1)c1ccccc1` [Example 128, methyl ((1R)-2-((2S)-2-(5-(2′-methyl-4′-(2-((2S)-1-((2S)-tetrahydro-2-furanylcarbonyl)-2-pyrrolidinyl)-1H-imidazol-5-yl)-4-biphenylyl)-1H-imidazol-2-yl)-1-pyrrolidinyl)-2-oxo-1-phenylethyl)carbamate]: 9.00 to 12.00; `CN(C)[C@@H](C(=O)N1CCC[C@H]1c1ncc(-c2ccc(-c3ccc(-c4cnc([C@@H]5CCCN5C(=O)[C@@H](c5ccccc5)N(C)C)[nH]4)cc3C(F)(F)F)cc2)[nH]1)c1ccccc1` [Example 130, (1R,1′R)-2,2′-((2-(trifluoromethyl)-4,4′-biphenyldiyl)bis(1H-imidazole-5,2-diyl(2S)-2,1-pyrrolidinediyl))bis(N,N-dimethyl-2-oxo-1-phenylethanamine)]: 9.00 to 12.00; `COC(=O)N[C@@H](C(=O)N(C)[C@@H](C)c1ncc(-c2ccc(-c3ccc(-c4cnc([C@@H]5CCCN5C(=O)[C@@H](c5ccccc5)N(C)C)[nH]4)cc3)cc2)[nH]1)c1ccccc1` [Example 131.1-1, methyl((1R)-2-(((1S)-1-(5-(4′-(2-((2S)-1-((2R)-2-(dimethylamino)-2-phenylacetyl)-2-pyrrolidinyl)-1H-imidazol-5-yl)-4-biphenylyl)-1H-imidazol-2-yl)ethyl) (methyl)amino)-2-oxo-1-phenylethyl)carbamate]: 9.00 to 12.00.

As for `COC(=O)N[C@@H](C(=O)N(C)[C@@H](C)c1ncc(-c2ccc(-c3ccc(-c4cnc([C@@H]5CCCN5C(=O)[C@@H](c5ccccc5)N5CCCCC5)[nH]4)cc3)cc2)[nH]1)c1ccccc1` [Example 131.1-2, methyl((1R)-2-(methyl((1S)-1-(5-(4′-(2-((2S)-1-((2R)-2-phenyl-2-(1-piperidinyl)acetyl)-2-pyrrolidinyl)-1H-imidazol-5-yl)-4-biphenylyl)-1H-imidazol-2-yl)ethyl)amino)-2-oxo-1-phenylethyl)carbamate], the pEC50 is 9.00 to 12.00.

On to `CN(C)[C@@H](C(=O)N1CCC[C@H]1c1ncc(-c2ccc(-c3ccc(-c4cnc([C@@H]5CCCN5C(=O)[C@@H](c5ccccc5)N(C)C)[nH]4)cn3)cc2)[nH]1)c1ccccc1` [Example 132, (1R)-2-((2S)-2-(5-(6-(4-(2-((2S)-1-((2R)-2-(dimethylamino)-2-phenylacetyl)-2-pyrrolidinyl)-1H-imidazol-5-yl)phenyl)-3-pyridinyl)-1H-imidazol-2-yl)-1-pyrrolidinyl)-N,N-dimethyl-2-oxo-1-phenylethanamine], for which the negative logarithm of the EC50 (pEC50) was 9.00 to 12.00. Next, `O=C([C@H](O)c1ccccc1)N1CCC[C@H]1c1ncc(-c2ccc(-c3ccc(-c4cnc([C@@H]5CCCN5C(=O)[C@H](O)c5ccccc5)[nH]4)cn3)cc2)[nH]1` [Example 133, (1R)-2-((2S)-2-(5-(6-(4-(2-((2S)-1-((2R)-2-hydroxy-2-phenylacetyl)-2-pyrrolidinyl)-1H-imidazol-5-yl)phenyl)-3-pyridinyl)-1H-imidazol-2-yl)-1-pyrrolidinyl)-2-oxo-1-phenylethanol]: 7.00 to 9.00; `COC(=O)N[C@@H](C(=O)N1CCC[C@H]1c1ncc(-c2ccc(-c3ccc(-c4cnc([C@@H]5CCCN5C(=O)[C@H](NC(=O)OC)c5ccccc5)[nH]4)cn3)cc2)[nH]1)c1ccccc1` [Example 134, methyl ((1R)-2-((2S)-2-(5-(6-(4-(2-((2S)-1-((2R)-2-((methoxycarbonyl)amino)-2-phenylacetyl)-2-pyrrolidinyl)-1H-imidazol-5-yl)phenyl)-3-pyridinyl)-1H-imidazol-2-yl)-1-pyrrolidinyl)-2-oxo-1-phenylethyl)carbamate]: 9.00 to 12.00. Next, `CO[C@@H](C(=O)N1CCC[C@H]1c1ncc(-c2ccc(-c3ccc(-c4cnc([C@@H]5CCCN5C(=O)[C@H](OC)c5ccccc5)[nH]4)cn3)cc2)[nH]1)c1ccccc1` [Example 135, 5-(2-((2S)-1-((2R)-2-methoxy-2-phenylacetyl)-2-pyrrolidinyl)-1H-imidazol-5-yl)-2-(4-(2-((2S)-1-((2R)-2-methoxy-2-phenylacetyl)-2-pyrrolidinyl)-1H-imidazol-5-yl)phenyl)pyridine]: 9.00 to 12.00; `Cc1cc(-c2cnc([C@@H]3CCCN3C(=O)[C@@H](c3ccccc3)N(C)C)[nH]2)ccc1-c1ccc(-c2cnc([C@@H]3CCCN3C(=O)[C@@H](c3ccccc3)N(C)C)[nH]2)cn1` [Example 136, (1R)-2-((2S)-2-(5-(6-(4-(2-((2S)-1-((2R)-2-(dimethylamino)-2-phenylacetyl)-2-pyrrolidinyl)-1H-imidazol-5-yl)-2-methylphenyl)-3-pyridinyl)-1H-imidazol-2-yl)-1-pyrrolidinyl)-N,N-dimethyl-2-oxo-1-phenylethanamine]: 9.00 to 12.00.

Broadly, the pEC50 is −log10 of the EC50, conventionally taken in molar units.

Source of the values: patent US7745636B2, “Hepatitis C virus inhibitors” (Bristol-Myers Squibb Company, priority 2006, dated 2010).
